Consider 2 sequences from patent US12234288B2, “Immunogenic arginase 2 polypeptides” (IO Biotech ApS, priority 2018, dated 2025).

The subject of assay [1] is PBMCs (CD4+ and CD8+ T cells). In words: Intracellular cytokine staining (IFNγ, TNFα) of peptide-stimulated PBMCs by flow cytometry. Type of assay: cell-based, human. Particulars: for double positive (DP) CD4+ cells: FIG. 6; for intracellular cytokine staining for IFNy and TNFα production: healthy donors and cancer patients with solid tumors, Example 2, FIG. 14B/15D. The method, then:
Intracellular staining of cell cultures was performed after PBMCs were stimulated with arginase-derived peptides (or incubated with no peptide as a control) for 5 hours in the presence of BD GolgiPlug™ (added after the first hour of peptide stimulation). Stimulated cells were stained with fluorescently labeled antibodies for surface markers (CD3, CD4, CD8) and thereafter permeabilized by using Fixation/Permeabilization and Permeabilization Buffer (eBioscience, cat. 00-{5123-43), according to manufacturer's instructions. Permeabilized cells were then stained with fluorochrome-labeled antibodies for IFNγ and TNFα. Flow cytometry analysis was performed on a FACSCanto™ II (BD Biosciences). Antibodies used: IFNγ-APC (cat.341117), TNFα-[…] BV421 (cat.562783), CD4-FITC (cat.347413), CD8-PerCP (cat.345774), CD3-APC-H7 (cat. 560275) (all from BD Biosciences), dead cells stain-FVS510 (564406, BD Biosciences) according to manufacturer's instructions.
Intracellular staining of cell cultures was performed on PBMCs after one week of ARG2-derived peptide stimulation in vitro. For the assay, 9×10^5 PBMCs were re-stimulated with ARG2-derived peptides (or incubated with no peptide as a control) for 5 hours in the presence of BD GolgiPlug™ (added after the first hour of peptide stimulation). Stimulated cells were stained with fluorescently labeled antibodies for surface markers (CD3, CD4, CD8) and thereafter permeabilized by using Fixation/Permeabilization and Permeabilization Buffer (eBioscience, cat. 00-{5123-43), according to manufacturer's instructions. Permeabilized cells were then stained with fluorochrome-labeled antibodies for IFNγ and TNFα. Flow cytometry analysis was performed on a FACSCanto™ II (BD Biosciences). Antibodies used: IFNγ-APC, TNFα-BV421, CD4-PerCP, CD8-FITC, CD3-APC-H7, CD4-FITC, CD8-PerCP, and dead cells stain-FVS510 (all from BD Biosciences) according to manufacturer's instructions. For intracellular cytokine staining to detect cytokine production of ARG2-specific T cells in response to target cells, 5×10^5 ARG2 specific cells were incubated with 2.5×10^5 target cells for 5 hours with GolgiPlug™ added after the first hour.
A general note: Flow cytometry measures light scatter and fluorescence of single cells or particles in a stream.

Assay [2] concerns PBMCs from healthy donors and cancer patients. In words: IFNγ ELISPOT of PBMCs pre-stimulated one week in vitro with peptide and low-dose IL-2. Type of assay: cell-based, human. Particulars: for IFNγ ELISPOT response: ARG2 peptide library screen, PBMCs from 6 healthy donors, FIG. 3. The method, then: For in vitro ELISPOT, PBMCs from cancer patients and healthy donors were pulsed with 20 μM of […] (or with no peptide as a control) and 120 U/ml IL-2 in 24-well plates for 7 days before being used in an ELISPOT assay. The cells were placed in 96-well nitrocellulose ELISPOT plates (MultiScreen MAIP N45; Millipore) pre-coated with IFNγ capture antibody (Mabtech). Arginase peptides added to a final concentration of 5 μM and plates incubated at 37° C. for 14-16 hours. After the incubation the cells were washed off and secondary biotinylated Ab (Mabtech, cat. 3420-{6-1000) was added for 2 hours at room temperature. Unbound secondary antibody was washed off and streptavidin conjugated alkaline phosphatase (AP) (Mabtech, cat. 3310-10) was added for 1 hour at room temperature. Unbound conjugated enzyme was washed off and the assay was developed by adding BCIP/NBT substrate (Mabtech, cat. 3650-10). Developed ELISPOT plates were analyzed on CTL ImmunoSpot S6 Ultimate-V analyzer using Immunospot software v5.1. Responses were reported as the difference between average numbers of spots in wells stimulated with arginase2 and wells without added peptide.
To test whether these peptides could be used to identify Arginase2 responses, PBMCs from 12 healthy donors and one cancer patients were screened for responses in IFNγ ELISPOT. PBMCs were stimulated with Arginase2 peptides and low dose IL-2 for 1 week prior to ELISPOT.
The entire arginase2 protein sequence was divided into overlapping 20-amino-acid-long peptides (with a final peptide of 24 amino acids), generating a library of 34 peptides covering the whole sequence (SEQ ID NOs 1-34)). Each peptide in the library overlapped with the first 10 amino acids of the following peptide. Using this arginase2 peptide library and the IFNγ ELISPOT assay, we next screened PBMCs from 6 healthy donors for spontaneous responses. The PBMCs were stimulated for one week with a pool of 3-4 adjacent 20-mer arginase2 library peptides and low-dose IL-2 (120 U/mL). They were then set up for an IFNγ ELISPOT assay to screen for responses against each 20-mer peptide separately.
PBMCs from two healthy donors were stimulated for one week with a single peptide and low-dose IL-2 (120 U/mL) before IFNy ELISPOTassay to validate the responses observed in the library screen.
PBMCs from […] were stimulated for one week with a single peptide and low-dose IL-2 (120 U/mL) before IFNy ELISPOTassay to validate the responses observed in the library screen. ARG2_1, ARG2_5, ARG2_13, ARG2_18 and ARG2_22 were tested in this validation.
ARG2_1 was used to screen for responses in 8 melanoma patients (AA07-AA31), 4 prostate cancer patients (UR07-27) and 13 healthy donors. PBMCs from each were stimulated for one week with a single peptide and low-dose IL-2 (120 U/mL) before IFNy ELISPOT assay.
PBMCs from healthy donors or cancer patients were stimulated with 10 μM of ARG2-derived peptides in vitro to enhance assay sensitivity. On day 2, IL-2 was added to a total of 120 U/ml IL-2 (Novartis). After 7 days, 4-6×10^5 PBMCs were placed at the bottom of an ELISPOT plate pre-coated with IFNy capture antibody (Mabtech). PBMCs from each donor or patient were set up in triplicates or quadruplicates for peptide (5 μM ARG2-derived peptide) and control stimulations. Cells were incubated in ELISPOT plates in the presence of an antigen for 14-16 hrs after which they were washed off and secondary biotinylated antibody (Mabtech) was added. After two hour incubation the secondary antibody was washed off before addition of streptavidin conjugated alkaline phosphatase (Mabtech) for 1 hr. Next, unbound enzyme was washed off and the assay was developed by adding BCIP/NBT subtrate (Mabtech). Developed ELISPOT plates were analyzed on CTL Immunospot S6 Ultimate-V analyzer with ImmunoSpot software, version 5.1. […]

Entries after “also recorded” stand apart in the source; their conditions may differ.

Turning to “LQTRVHSILKKSVHSVAVIG (listed as Homo sapiens) [ARG2_1, polypeptide derived from human Arginase2, aa11-30]”, the “double positive (DP) CD4+ cells” value in assay [1] (healthy donor Buf-M-01, IFN-gamma and TNF-alfa) stood at 0.2%; in assay [1] (healthy donor Buf-M-02, IFN-gamma and TNF-alfa) it was 0.1%. Moreover, in assay [1], the “intracellular cytokine staining for IFNy and TNFα production” value was “primarily showed CD4+ responses”. Further, the “CD8+ T cell response in intracellular cytokine staining” value in assay [1] (one cancer patient, FIG. 9) is “release more of IFN-gamma (y-axis) and TNF-alfa (x-axis)”. In addition, in assay [1] (prostate cancer patient UR12, control 0.5%, FIG. 9), the “CD8+ DP cells” value is on record as 0.9%. Further, in assay [1] (two healthy donors, Example 1, FIG. 6), the “CD4+ T cell response in intracellular cytokine staining” value is reported as “reacting specifically; also recorded: release both IFN-gamma (y-axis) or TNF-alfa (x-axis)”. The “donors with significant IFNy ELISPOT responses” value in assay [2] (8 melanoma patients, 4 prostate cancer patients and 13 healthy donors (15 out of 25), FIG. 8) was 60%. Also, the “screened donors with significant IFNy ELISPOT responses” value in assay [2] (33 HDs and 19 cancer patients with solid tumors, FIG. 14A) is reported as “around 75%”. Also, the “IFNγ ELISPOT response” value in assay [2] (listed as ARG2-1) is “highest and most frequent responses”; in assay [2] (listed as Arg2_1), “highest responses”. For the same sequence, the “AML patients with a significant IFNy ELISPOT response” value in assay [2] (PBMCs from patients diagnosed with AML, FIG. 14A) was 3 out of 9. The “IFNy ELISPOT response” value was “Strong and frequent responses; also recorded: widely recognized” in assay [2] (healthy donors and cancer patients, FIG. 14); “Strong and prominent responses” in assay [2] (validation of other regions, PBMCs from four healthy donors, FIG. 5); “strong and prominent responses” in assay [2] (validation of other regions, PBMCs from four healthy donors, FIG. 5, listed as Arg2_1).
As for “SLRGSLSRLLQTRVHSILKKSVHSVAVIGAPFS (listed as Homo sapiens) [A2L2, long ARG2 peptide, aa2-34, 33-mer]”, the “intracellular cytokine staining for IFNy and TNFα production” value in assay [1] is “only CD4+ responses”. Further, the “donors in which A2L2 immune responses were higher than ARG2-1 responses” value in assay [2] (6 healthy donors, not significant (p=0.0625), FIG. 15B) is on record as 5 out of 6. Further, in assay [2] (30 healthy donors and 18 cancer patients, FIG. 15), the “IFNy ELISPOT response” value was “strong and frequent CD4+ T-cell responses”. Further, in assay [2] (30 healthy donors and 18 cancer patients, FIG. 15C), the “donors with IFNy ELISPOT responses” value is listed as “about 80%”. The “IFNy ELISPOT response to long peptides” value in assay [2] (PBMCs from 6 healthy donors stimulated once, FIG. 15A) is “strongest and most frequent immune responses”. Besides, the “immune responses compared to ARG2-1 responses in the same donor” value in assay [2] (not significant (p=0.7038), FIG. 15E) is reported as “on average higher”.
